Test results taken from patent EP0263493A2, “Pharmaceutic preparation to improve the gastro-intestinal resorption” (priority 1986, dated 1988).

Key:
[1] = Antibiotic plasma level and bioavailability after oral or enteral (duodenal) administration, rats (bioassay with E. coli 1346)
Text: Eine erste in vivo-Testanordnung war wie folgt: Als Versuchsobjekte wurden Menschen und Ratten eingesetzt, die ein β-Lactam-Antibiotikum sowohl oral als auch enteral erhielten. Für die orale Verabreichung wurden die Antibiotika in destilliertem Wasser oder in einem Träger wie Witepsol H15 allein oder zusammen mit CAPMUL MCM 90 und einem Resorptionsverstärker wie Natriumchenodeoxycholat (NaCDC) oder Chenodeoxycholsäure oder Natriumdeoxycholat (NaDC) oder Deoxycholsäure verwendet. In de gleichen Weise wurden die Antibiotika für die enterale Verabreichung hergerichtet und duodenal verabreicht.
Plasmaspiegel der Antibiotika wurden im Blut aus der Armvene des Menschen und der Schwanzvene der Ratte nach Zentrifugieren bestimmt. Die Antibiotika-enthaltenden Blutproben von Ratten wurden durch Bioassay auf einer Nunc-Platte analysiert; E. coli 1346, über Nacht auf einer Antibiotika--Agar Nr. 1-Kultur kultiviert wurde mit Kochsalzlösung gewaschen, wobei eine Suspension mit 90% Durchlässigkeit auf einem Bausch und Lomb-Spectronic 20 (650 nm) hergestellt wurde. 16 ml der erhaltenen Suspension wurden zu 600 ml geschmolzenem Antibiotika-Agar Nr. 1 gegeben, 200 ml des beimpften Agars wurden auf jede Nunc-Platte (243 × 243 ×18 mm) gegeben. Die Agarplatten wurden ausgestanzt, so dass […] Proben in jede Höhlung gegeben werden konnten.
Bei den vorstehend beschriebenen Versuchen wurden Lösungen des Wirkstoffs in destilliertem Wasser bei Raumtemperatur hergestellt und sofern ein Resorptionsverstärker anwesend war, dieser in feinverteilter Form langsam eingeführt, wobei eine feinteilige Suspension erhalten wurde.

[2] = test system: Ratten; assay: Insulin effect on blood glucose level after injection into the duodenum of fasted, anaesthetised rats; assay type: in vivo; conditions: presence of NaCDC in the insulin preparations, summary of Tabelle 2
Text: In dieser Versuchsanordnung wurden Ratten über Nacht fasten gelassen, anästhesiert und der Wirkstoff durch Injektion in das Duodenum verabreicht. Blutproben aus dem Schwanz wurden zu verschiedenen Zeiten entnommen und auf chemisch vorbehandeltem Papier (Chemistrip bg. Boehringer Mannheim Diagnostics) mittels eines Accucheck bg Blutglukosemonitors (Biodynamics, Baltimore) ausgewertet.

[3] = given with Natriumchenodeoxycholat instead of Wasser, summary of Tabelle 1

CC1(C)S[C@@H]2[C@H](/N=C/N3CCCCCC3)C(=O)N2[C@H]1C(=O)O [Amdinocillin]
Spiegel des Antibiotikums ([1]; in vivo): signifikant höhere Spiegel

NC(=O)OC[C@@H]1[C@H](NC(=O)/C(=N\OCC(=O)O)c2csc(N)n2)C(=O)N1S(=O)(=O)O [Carumonam]
Spiegel des Antibiotikums [1, 3]: signifikant höhere Spiegel

Cn1nnnc1SCC1=C(C(=O)O)N2C(=O)[C@@H](NC(=O)[C@H](O)c3ccccc3)[C@H]2SC1 [Cefamandol]
Spiegel des Antibiotikums [1, 3]: signifikant höhere Spiegel

CO/N=C(\C(=O)N[C@@H]1C(=O)N2C(C(=O)O)=C(CSc3nc(=O)c(=O)[nH]n3C)CS[C@H]12)c1csc(N)n1 [Ceftriaxon]
Resorption von Ceftriaxon ([1]; in vivo): synergistisch verstärkt | Spiegel des Antibiotikums ([1]; in vivo): signifikant höhere Spiegel | Spiegel von Ceftriaxon ([1]; in vivo): erhöht

CO[C@@]1(NC(=O)C(C(=O)O)c2ccc(O)cc2)C(=O)N2C(C(=O)O)=C(CSc3nnnn3C)CO[C@@H]21 (stereo partly drawn) [Moxalactam]
Spiegel des Antibiotikums ([1]; in vivo): signifikant höhere Spiegel

C[C@H](CCC(=O)O)[C@H]1CC[C@H]2[C@@H]3[C@H](O)C[C@@H]4C[C@H](O)CC[C@]4(C)[C@H]3CC[C@]12C [NaCDC, Natriumchenodeoxycholat]
Blutzucker [2]: signifikanten zeitweisen Verminderung des Blutzuckers

C[C@@H](O)[C@H]1C(=O)N2C(C(=O)O)=C(SCCN)C[C@H]12 [Thienamycin]
Spiegel des Antibiotikums ([1]; in vivo): signifikant höhere Spiegel
